What was measured:
[1] = system: passive cutaneous anaphylaxis (PCA); assay: Antiallergic effects: passive cutaneous anaphylaxis (PCA), inhibition of leaked color amount; assay type: in vivo, male SD rat; details: rat PCA; oral, 10 mg/4 ml/kg one hour before the administration of antigen
Description: The back of a male SD rat (150-250 g in weight) was shaved in advance. Physiological saline and 0.1 ml of anti DNP-AS (Dinitrophenyl conjugated Ascaris) IgE serum which had been diluted to a suitable concentration with physiological saline were intradermally injected there. Fourty-eight hours after sensitization, the animals were challenged with 1 ml of 0.5% Evans blue physiological saline containing 2.5 mg/ml of DNP-BSA (dinitrophenyl conjugated bovine serum albumin) via the tail vein. Thirty minutes later, they were sacrificed under exsanguination and the dorsal skin was removed and the exuded dye was measured according to the method proposed by Harada et al. [Allergy, 15, 1-7(1966)]. The leaked color amount caused by the passive cutaneous anaphylaxis (PCA) was determined by subtracting the leaked color amount of the site to which physiological saline was administered from that of the PCA site. Each test compound was suspended in 5% gum arabic or 0.5% methylcellulose and the-resulting suspension was orally administered at the rate of 10 mg/4 ml/kg one hour before the administration of antigen. The efficacy of the test compound was evaluated by an ihibition rate (antiallergic effects) of the leaked color amount.

[2] = system: contraction reaction of the isolated ileum caused by histamine; assay: Antihistamic effects: inhibition of histamine-induced contraction of isolated guinea pig ileum (Magnus bath); assay type: cell-based, Hartley male guinea pig; details: Cavia porcellus, histamine 3×10^-7 mole, test compound for 3 minutes before histamine, 30° C., read-out: antihistamic action (50% inhibition concentration: IC50 value)
Description: From a Hartley male guinea pig (300-600 g in weight), the ileum was isolated. The ileum was attached to a holder under a vesting tension of 0.5 g in a Magnus bath (30° C., under aeration) filled with 10 ml of the Tyrode solution. As a contraction reaction of the isolated ileum caused by histamine (3×10^-7 mole), an isometrical change in muscular tension was measured. The ileum was treated with the test compound for 3 minutes before the addition of histamine to study its effects and then its antihistamic action (50% inhibition concentration: IC50 value) was determined.
Incidentally, the IC50 value of Cetirizine (the compound disclosed in Japanese Patent Laid-Open No. 149282/1982) was determined as a control. Its IC value was 2.40 μM.

| Molecule | Antiallergic effects (inhibition rate of the leaked color amount) [1] [%] | IC50 [2] [nM] |
| --- | --- | --- |
| O=C(Nc1nnn[nH]1)c1ccccc1OCCCN1CCN(C(c2ccccc2)c2ccc(Cl)cc2)CC1 (stereo not drawn) [Example 45, 2-[3-[4-[(4-Chlorophenyl)phenylmethyl]-1-piperazinyl]propoxy]-N-1H-tetrazol-5-yl-benzamide] | 72.4 |  |
| O=C(O)COCCN1CCN(C(c2ccccc2)c2ccc(Cl)cc2)CC1 (stereo not drawn) [Cetirizine] |  | 2400 |
| O=C(Nc1nnn[nH]1)c1ccccc1OCCCN1CCN(C(c2ccccc2)c2ccccc2)CC1 [Example 46, 2-[3-[4-(Diphenylmethyl)-1-piperazinyl]propoxy]-N-1H-tetrazol-5-yl-benzamid] | 59.8 |  |
| O=C(O)c1ccccc1OCCN1CCN(C(c2ccccc2)c2ccc(Cl)cc2)CC1 (stereo not drawn) [Example 5, 2-[2-[4-[(4-Chlorophenyl)phenylmethyl]-1-piperazinyl]ethoxy]benzoic acid] | 86.4 |  |
| 2-[2-[4-[(4-Chlorophenyl)phenylmethyl]-1-piperazinyl]ethoxy]-1-tetrazol-5-ylmethyl [Example 69] | 81.0 |  |
| O=C(O)c1ccccc1OCCN1CCN(C(c2ccccc2)c2ccccc2)CC1 [Example 9, 2-[2-[4-(Diphenylmethyl]-1-piperazinyl]ethoxy]-benzoic acid] | 61.9 |  |
| O=C(Nc1nnn[nH]1)c1ccccc1SCCN1CCN(C(c2ccccc2)c2ccc(Cl)cc2)CC1 (stereo not drawn) [Example 44, 2-[[2-[4-[(4-Chlorophenyl)phenylmethyl]-1-piperazinyl]ethyl]thio]-N-1H-tetrazol-5-yl-benzamide] | 54.7 |  |
| O=C(COCCN1CCN(C(c2ccccc2)c2ccc(Cl)cc2)CC1)Nc1nnn[nH]1 (stereo not drawn) [Example 50, 2-[2-[4-[(4-Chlorophenyl)phenylmethyl]-1-piperazinyl]ethoxy]-N-1H-tetrazol-5-yl-acetamide] | 60.4 |  |
| O=C(Nc1nnn[nH]1)c1ccccc1OCCN1CCN(C(c2ccccc2)c2ccc(Cl)cc2)CC1 (stereo not drawn) [Example 41, 2-[2-[4-[(4-Chlorophenyl)phenylmethyl]-1-piperazinyl]ethoxy]-N-1H-tetrazol-5-yl-benzamide] | 52.3 |  |

Source: patent US5432179A, “Piperazine derivatives and pharmaceuticals containing the same” (Zeria Pharmaceutical Co., Ltd., priority 1991, dated 1995)
